Results on 18 compounds are retold here after ChEMBL document CHEMBL4004790, “ent-Strobane and ent-Pimarane Diterpenoids from Siegesbeckia pubescens” (J Nat Prod, 2017).

The subject of experiment [1] is RAW264.7. Nature of the experiment: Antiinflammatory activity in mouse RAW264.7 cells assessed as inhibition of LPS-induced nitric oxide production after 24 hrs by Griess assay. The class given is functional, cell-based. Conditions: RAW264.7, 24 h. (Nitrite, measured by Griess reagent, commonly stands in for NO production.)
For experiment [2], the system named is MDA-MB-231. As to the kind of experiment: Antiinvasive activity in human MDA-MB-231 cells assessed as inhibition of EGF-induced cell invasion after 3.5 hrs. As to conditions: MDA-MB-231, 3.5 h. Format: functional, cell-based.

As a reminder, the IC50 is the concentration that inhibits the measured activity by half. As to `CC1(C)[C@H](O)CC[C@@]2(C)[C@@H]3CC[C@](C)([C@@H](O)CO)C=C3C=C[C@H]12`, the IC50 in experiment [1] is greater than 100 µM; in experiment [2] it was greater than 10 µM.

Regarding `C[C@@]1(CO)C[C@H](O)C[C@@]2(C)[C@@H]3CC[C@](C)([C@@H](O)CO)C=C3CC[C@H]12`, the IC50 in experiment [1] was greater than 100 µM; in experiment [2], greater than 10 µM.

With `C[C@]1(CO)C[C@@H](O)C[C@@]2(C)[C@@H]3CC[C@](C)([C@@H](O)CO)C=C3CC[C@H]12`, the results for the concentration for half-maximal inhibition (IC50) in experiment [1] and in experiment [2] were greater than 100 µM and greater than 10 µM, respectively.

Take `CC1(C)[C@H]2CC=C3[C@@H](CC[C@@]4(C)[C@@H]3OC[C@@H]4O)[C@]2(C)CC[C@@H]1O`: the values for the IC50 in experiment [1] and in experiment [2] were greater than 100 µM and greater than 10 µM, respectively.

For the compound `C[C@@]1(CO)C[C@@H](O)C[C@@]2(C)[C@@H]3CC[C@](C)(O)[C@@H](CO)C=C3CC[C@H]12`, the half-maximal inhibitory concentration (IC50) in experiment [1] was greater than 100 µM; in experiment [2] it was greater than 10 µM.

Take `C[C@@]1(CO)C[C@@H](O)C[C@@]2(C)[C@@H]3CC[C@](C)([C@@H](O)CO)C=C3[C@@H](O)C[C@H]12`: the results for the 50% inhibitory concentration (IC50) in experiment [1] and in experiment [2] were greater than 100 µM and greater than 10 µM, respectively.

Regarding `Cc1ccc2c(c1)C(=O)C[C@@H]1[C@](C)(CO)CC(=O)C[C@@]21C`, the 50% inhibitory concentration (IC50) was greater than 100 µM in experiment [1] and 4.26 to 4.29 µM in experiment [2].

`Cc1ccc2c(c1)CC[C@@H]1[C@](C)(CO)C[C@@H](O)C[C@@]21C`: the IC50 in experiment [1] is greater than 100 µM; in experiment [2], greater than 10 µM.

Regarding `CC1(C)[C@H](O)C[C@H](O)[C@@]2(C)[C@@H]3CC[C@](C)([C@@H](O)CO)C=C3CC[C@H]12`, the IC50 in experiment [1] was greater than 100 µM; in experiment [2], greater than 10 µM.

Turning to `CC1(C)[C@H](O)CC[C@@]2(C)[C@@H]3CC[C@@]4(C)[C@H](OC[C@@H]4O)C3=CC[C@H]12`, the concentration for half-maximal inhibition (IC50) was greater than 100 µM in experiment [1] and greater than 10 µM in experiment [2].

In the case of `C[C@]1(CO)[C@H]2CCC3=C[C@@](C)([C@@H](O)CO)CC[C@H]3[C@]2(C)C[C@H](O)[C@H]1O`, the half-maximal inhibitory concentration (IC50) is greater than 100 µM in experiment [1] and greater than 10 µM in experiment [2].

With `C[C@@]1(CO)C[C@@H](O)C[C@@]2(C)[C@@H]3CC[C@](C)([C@H](O)CO)C=C3CC[C@H]12`, the half-maximal inhibitory concentration (IC50) is greater than 100 µM in experiment [1] and greater than 10 µM in experiment [2].

For `CC1(C)[C@H](O)CC[C@@]2(C)[C@@H]3CC[C@](C)([C@H](O)CO)C=C3CC[C@H]12`, the IC50 is greater than 100 µM in experiment [1] and 3.45 µM in experiment [2].

On to `C[C@@]1(CO)C[C@@H](O)C[C@@]2(C)[C@@H]3CC[C@](C)([C@@H](O)CO)C=C3[C@H](O)C[C@H]12`, for which the half-inhibitory concentration (IC50) was greater than 100 µM in experiment [1] and 9.7 µM in experiment [2].

For `C[C@@]1(CO)C[C@@H](O)C[C@@]2(C)[C@@H]3CC[C@](C)([C@@H](O)CO)C=C3C=C[C@H]12`, the figures for the IC50 in experiment [1] and in experiment [2] were greater than 100 µM and greater than 10 µM, respectively.

For the compound `CC1(C)[C@H](O)CC[C@@]2(C)[C@@H]3CC[C@](C)(O)[C@@H](CO)C=C3CC[C@H]12`, the IC50 is greater than 100 µM in experiment [1] and greater than 10 µM in experiment [2].

For `CC1(C)[C@H](O)CC[C@@]2(C)[C@@H]3CC[C@](C)([C@@H](O)CO)C=C3CC[C@H]12` [DARUTIGENOL], the half-maximal inhibitory concentration (IC50) in experiment [1] was greater than 100 µM; in experiment [2], greater than 10 µM.

As to `C[C@@]1(CO)C[C@@H](O)C[C@@]2(C)[C@@H]3CC[C@](C)([C@@H](O)CO)C=C3CC[C@H]12` [KIRENOL], the IC50 is greater than 100 µM in experiment [1] and greater than 10 µM in experiment [2].
